Results published in ChEMBL document CHEMBL1128307, “2-Aralkynyl and 2-heteroalkynyl derivatives of adenosine-5'-N-ethyluronamide as selective A2a adenosine receptor agonists” (J Med Chem, 1995).

How the values were obtained:
Adenosine receptor A2a [1] = molecular target: T1, Adenosine receptor A2a (Rattus norvegicus, UniProt P30543)
[2] = Hydrophobicity index (k'') (RP-HPLC pH 7.5); format: ADME
Adenosine receptor A2a [3] = molecular target: T1, Adenosine receptor A2a; remark: listed apart in the source
Description: Functional activity against adenosine A2a receptor from rat aorta.

Adenosine receptor A1 [4] = molecular target: T2, Adenosine receptor A1 (Rattus norvegicus, UniProt P25099)
T2 sequence (P25099 whole entry): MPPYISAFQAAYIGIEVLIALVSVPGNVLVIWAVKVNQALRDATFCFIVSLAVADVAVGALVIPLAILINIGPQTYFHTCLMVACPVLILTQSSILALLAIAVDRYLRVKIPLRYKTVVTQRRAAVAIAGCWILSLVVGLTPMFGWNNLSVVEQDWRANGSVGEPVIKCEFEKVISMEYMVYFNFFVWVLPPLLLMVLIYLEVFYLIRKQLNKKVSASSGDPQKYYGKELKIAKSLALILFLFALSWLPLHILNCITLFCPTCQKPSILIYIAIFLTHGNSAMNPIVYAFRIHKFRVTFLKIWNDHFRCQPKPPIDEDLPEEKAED
Description: Binding affinity against adenosine A1 receptor from rat brain using [3H]CHA as a radioligand.

Adenosine receptor A1 [5] = molecular target: T2, Adenosine receptor A1; experiment: Functional activity against adenosine A1 receptor from rat atria.
Adenosine receptor A2a [6] = molecular target: T1, Adenosine receptor A2a; experiment: Functional activity against A2a adenosine receptor from rat aorta.

T1 sequence (P30543 whole entry): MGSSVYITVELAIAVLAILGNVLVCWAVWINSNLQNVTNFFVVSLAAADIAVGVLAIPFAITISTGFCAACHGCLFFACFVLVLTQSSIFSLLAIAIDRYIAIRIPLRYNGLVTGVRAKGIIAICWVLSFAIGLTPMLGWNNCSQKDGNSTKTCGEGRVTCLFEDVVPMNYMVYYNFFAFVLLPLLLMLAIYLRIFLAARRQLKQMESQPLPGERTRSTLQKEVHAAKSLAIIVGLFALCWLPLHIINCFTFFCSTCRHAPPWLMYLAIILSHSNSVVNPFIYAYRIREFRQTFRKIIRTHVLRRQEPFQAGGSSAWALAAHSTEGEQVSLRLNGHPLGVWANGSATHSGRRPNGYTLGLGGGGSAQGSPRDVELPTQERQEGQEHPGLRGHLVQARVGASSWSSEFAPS

Ki (Adenosine receptor A2a [1])	k' [2]	EC50 (Adenosine receptor A2a [3])	Ki (Adenosine receptor A1 [4])	EC50 (Adenosine receptor A1 [5])	EC50 (Adenosine receptor A2a [6])	Structure (SMILES)
57.8 nM	0.25	440 nM				C#Cc1nc(N)c2ncn([C@@H]3O[C@H](C(=O)NCC)[C@@H](O)[C@H]3O)c2n1
1.2 nM	5.82		209 nM	6480 nM		CCNC(=O)[C@H]1O[C@@H](n2cnc3c(N)nc(C#CCCCc4ccccc4)nc32)[C@H](O)[C@@H]1O
120 nM	2.04	1500 nM	698 nM	> 10000 nM		CCNC(=O)[C@H]1O[C@@H](n2cnc3c(N)nc(C#Cc4ccccc4)nc32)[C@H](O)[C@@H]1O
	2.76					OC[C@H]1O[C@@H](n2cnc3c(NC4CCCC4)nc(Cl)nc32)[C@H](O)[C@@H]1O
	2.57	596 nM				CCCCC#Cc1nc(N)c2ncn([C@@H]3O[C@H](C(=O)NCC)[C@@H](O)[C@H]3O)c2n1
87 nM	0.57	> 10000 nM	428 nM	> 10000 nM		CCNC(=O)[C@H]1OC(n2cnc3c(N)nc(C#Cc4ccncc4)nc32)[C@H](O)[C@@H]1O (stereo not given in full)
6.3 nM	1.02	110 nM	1000 nM	> 10000 nM		CCNC(=O)[C@H]1OC(n2cnc3c(N)nc(C#Cc4ccc(C=O)cc4)nc32)[C@H](O)[C@@H]1O (stereo not given in full)
20.6 nM	0.66	660 nM	497 nM	> 10000 nM		CCNC(=O)[C@H]1OC(n2cnc3c(N)nc(C#Cc4ccc(O)cc4)nc32)[C@H](O)[C@@H]1O (stereo not given in full)
187 nM	1.18	1670 nM	> 10000 nM	> 10000 nM		CCNC(=O)[C@H]1OC(n2cnc3c(N)nc(C#Cc4ccc(C(C)=O)cc4)nc32)[C@H](O)[C@@H]1O (stereo not given in full)
234 nM	0.51	491 nM	139 nM	415 nM		CCNC(=O)[C@H]1OC(n2cnc3c(N)nc(C#Cc4cccnc4)nc32)[C@H](O)[C@@H]1O (stereo not given in full)
4.3 nM	1.11	302 nM	27.5 nM	322 nM		CCNC(=O)[C@H]1OC(n2cnc3c(N)nc(C#CCN4CCCCC4)nc32)[C@H](O)[C@@H]1O (stereo not given in full)
113 nM	0.46	4070 nM	599 nM	> 10000 nM		CCNC(=O)[C@H]1OC(n2cnc3c(N)nc(C#Cc4ccc(N)cc4)nc32)[C@H](O)[C@@H]1O (stereo not given in full)
21.5 nM	1.82	1210 nM	900 nM	> 10000 nM		CCNC(=O)[C@H]1OC(n2cnc3c(N)nc(C#Cc4ccc([N+](=O)[O-])cc4)nc32)[C@H](O)[C@@H]1O (stereo not given in full)
27.4 nM	0.28	531 nM	90.5 nM	358 nM		CCNC(=O)[C@H]1OC(n2cnc3c(N)nc(C#CCN4CCOCC4)nc32)[C@H](O)[C@@H]1O (stereo not given in full)
315 nM	5.79	2990 nM	2430 nM			CCNC(=O)[C@H]1OC(n2cnc3c(N)nc(C#Cc4ccc(C(F)(F)F)cc4)nc32)[C@H](O)[C@@H]1O (stereo not given in full)
19.5 nM	1.63		597 nM	> 10000 nM	227 nM	CCNC(=O)[C@H]1OC(n2cnc3c(N)nc(C#Cc4cccs4)nc32)[C@H](O)[C@@H]1O (stereo not given in full)
52.4 nM	2.15	3480 nM	414 nM	> 10000 nM		CCNC(=O)[C@H]1OC(n2cnc3c(N)nc(C#Cc4ccc(OC)cc4)nc32)[C@H](O)[C@@H]1O (stereo not given in full)
1.6 nM	2.4	406 nM	27.4 nM	164 nM		CCNC(=O)[C@H]1OC(n2cnc3c(N)nc(C#CCc4ccccc4)nc32)[C@H](O)[C@@H]1O (stereo not given in full)
176 nM	1.06	3570 nM	1440 nM	> 10000 nM		CCNC(=O)[C@H]1OC(n2cnc3c(N)nc(C#Cc4cccc(C=O)c4)nc32)[C@H](O)[C@@H]1O (stereo not given in full)
130 nM	1.06	> 10000 nM	310 nM	> 10000 nM		CCNC(=O)[C@H]1OC(n2cnc3c(N)nc(C#Cc4ccco4)nc32)[C@H](O)[C@@H]1O (stereo not given in full)
488 nM	5.49	468 nM	4460 nM	> 10000 nM		CCNC(=O)[C@H]1OC(n2cnc3c(N)nc(C#Cc4cccc5ccccc45)nc32)[C@H](O)[C@@H]1O (stereo not given in full)
54.8 nM	0.76	6520 nM	1600 nM	> 10000 nM		CCNC(=O)[C@H]1OC(n2cnc3c(N)nc(C#Cc4ccc(CC#N)cc4)nc32)[C@H](O)[C@@H]1O (stereo not given in full)
1160 nM	1.14	1300 nM	6860 nM	> 10000 nM		CCNC(=O)[C@H]1OC(n2cnc3c(N)nc(C#Cc4ccccc4C=O)nc32)[C@H](O)[C@@H]1O (stereo not given in full)
743 nM	2.28	1350 nM	> 10000 nM	> 10000 nM		CCNC(=O)[C@H]1OC(n2cnc3c(N)nc(C#Cc4ccc(CCC(=O)OC(C)(C)C)cc4)nc32)[C@H](O)[C@@H]1O (stereo not given in full)
36.3 nM	3.59	3290 nM	500 nM	8530 nM		CCNC(=O)[C@H]1OC(n2cnc3c(N)nc(C#Cc4ccc(C)cc4)nc32)[C@H](O)[C@@H]1O (stereo not given in full)
81.4 nM	2.33	> 10000 nM	3310 nM	> 10000 nM		CCNC(=O)[C@H]1OC(n2cnc3c(N)nc(C#Cc4ccc(F)cc4)nc32)[C@H](O)[C@@H]1O (stereo not given in full)
1500 nM	0.32	6420 nM	7500 nM	> 10000 nM		CCNC(=O)[C@H]1OC(n2cnc3c(N)nc(C#Cc4ccc(C(N)=O)cc4)nc32)[C@H](O)[C@@H]1O (stereo not given in full)
89.8 nM	0.49	243 nM	114 nM	840 nM		CCNC(=O)[C@H]1OC(n2cnc3c(N)nc(C#Cc4ccccn4)nc32)[C@H](O)[C@@H]1O (stereo not given in full)
	0.24					CCNC(=O)[C@H]1O[C@@H](n2cnc3c(N)nc(NCCc4ccc(CCC(=O)O)cc4)nc32)[C@H](O)[C@@H]1O [CGS-21680]

Structure (SMILES)	Ki (Adenosine receptor A2a [1])	k' [2]	EC50 (Adenosine receptor A2a [3])	Ki (Adenosine receptor A1 [4])	EC50 (Adenosine receptor A1 [5])	EC50 (Adenosine receptor A2a [6])
CCNC(=O)[C@H]1OC(n2cnc3c(N)nc(C#CCN4CCN(C)CC4)nc32)[C@H](O)[C@@H]1O (stereo not given in full)	19.1 nM	0.42	408 nM	35.9 nM	877 nM	
CCNC(=O)[C@H]1OC(n2cnc3c(N)nc(C#CCN4CCSCC4)nc32)[C@H](O)[C@@H]1O (stereo not given in full)	5.9 nM	0.66	223 nM	52.8 nM	306 nM	
CCNC(=O)[C@H]1OC(n2cnc3c(N)nc(C#Cc4ccc(CCC(=O)O)cc4)nc32)[C@H](O)[C@@H]1O (stereo not given in full)	> 1000 nM		0.008 nM	> 1000 nM	> 10000 nM	
CCNC(=O)[C@H]1OC(n2cnc3c(N)nc(C#Cc4nccs4)nc32)[C@H](O)[C@@H]1O (stereo not given in full)	41.3 nM	0.55	28.7 nM	85.4 nM	7160 nM	
CCNC(=O)[C@H]1OC(n2cnc3c(N)nc(C#CCCc4ccccc4)nc32)[C@H](O)[C@@H]1O (stereo not given in full)	7 nM	3.16	210 nM	448 nM	> 10000 nM	
CCNC(=O)[C@H]1OC(n2cnc3c(N)nc(C#CCn4ccnc4)nc32)[C@H](O)[C@@H]1O (stereo not given in full)	16.5 nM	0.22	753 nM	178 nM	3140 nM	
CCNC(=O)[C@H]1O[C@@H](n2cnc3c(N)ncnc32)[C@H](O)[C@@H]1O [NECA]		0.19				
